Where a name gives a salt, the structure may show the parent alone. Read-outs that look alike come from different tables or passages of the source.
Assays:
[1] = target: T1, cloned human m2 muscarinic receptor (Homo sapiens, UniProt P08172); experiment: Muscarinic binding activity, 3H-QNB, m2
T1 sequence (P08172 1-466): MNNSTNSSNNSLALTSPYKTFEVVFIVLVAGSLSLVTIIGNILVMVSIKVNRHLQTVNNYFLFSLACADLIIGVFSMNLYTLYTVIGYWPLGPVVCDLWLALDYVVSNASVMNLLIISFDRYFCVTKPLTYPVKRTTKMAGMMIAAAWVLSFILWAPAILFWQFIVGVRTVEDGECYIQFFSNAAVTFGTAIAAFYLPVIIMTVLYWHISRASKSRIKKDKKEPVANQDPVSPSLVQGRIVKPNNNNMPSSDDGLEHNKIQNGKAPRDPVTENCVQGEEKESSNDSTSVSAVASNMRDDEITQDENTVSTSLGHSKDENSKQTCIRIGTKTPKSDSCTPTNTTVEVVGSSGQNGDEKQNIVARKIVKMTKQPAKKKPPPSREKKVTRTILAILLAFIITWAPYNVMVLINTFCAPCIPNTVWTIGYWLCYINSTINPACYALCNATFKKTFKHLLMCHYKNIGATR
Experimental: (§1) The compound of interest is tested for its ability to inhibit binding to the cloned human m1, m2, m3, and m4 muscarinic receptor subtypes. The sources of receptors in these studies were membranes from stably transfected CHO cell lines which were expressing each of the receptor subtypes. Following growth, the cells were pelleted and subsequently homogenized using a Polytron in 50 volumes cold 10 mM Na/K phosphate buffer, pH 7.4 (Buffer B). The homgenates were centrifuged at 40,000×g for 20 minutes at 4° C. The resulting supernatants were discarded and the pellets were resuspended in Buffer B at a final concentration of 20 mg wet tissue/ml. These membranes were stored at −80° C. until utilized in the binding assays described below.
(§2) Binding to the cloned human muscarinic receptors was performed using ^3H-quinuclidinyl benzilate (QNB) (Watson et al., 1986). Briefly, membranes (approximately 8, 20, and 14 μg of protein assay for the m1, m2, and m4 containing membranes, respectively) were incubated with ^3H-QNB (final concentration of 100-200 pM) and increasing concentrations of unlabeled drug in a final volume of 2 ml at 25° C. for 90 minutes. Non-specific binding was assayed in the presence of 1 μM atropine. The incubations were terminated by vacuum filtration over GF/B glass fiber filters using a Skatron filtration apparatus and the filters were washed with cold 10 mM Na/K phosphate butter, pH 7.4. Scintillation cocktail was added to the filters and the vials were incubated overnight. The bound radioligand was quantified in a liquid scintillation counter (50% efficiency). The resulting data were analyzed for IC50 values (i.e. the concentration of compound required to inhibit binding by 50%) using the EBDA computer program (McPherson, 1985). Affinity values (Ki) were then determined using the following formula (Cheng and Prusoff, 1973); [formula]
(§3) To determine the degree of selectivity of a compound for binding the m2 receptor, the Ki value for m1 receptors was divided by the Ki value for m2 receptors. A higher ratio indicates a greater selectivity for binding the m2 muscarinic receptor.

[2] = target: T2, cloned human m1 muscarinic receptor (Homo sapiens, UniProt P11229); experiment: Muscarinic binding activity, 3H-QNB, m1
T2 sequence (P11229 1-460): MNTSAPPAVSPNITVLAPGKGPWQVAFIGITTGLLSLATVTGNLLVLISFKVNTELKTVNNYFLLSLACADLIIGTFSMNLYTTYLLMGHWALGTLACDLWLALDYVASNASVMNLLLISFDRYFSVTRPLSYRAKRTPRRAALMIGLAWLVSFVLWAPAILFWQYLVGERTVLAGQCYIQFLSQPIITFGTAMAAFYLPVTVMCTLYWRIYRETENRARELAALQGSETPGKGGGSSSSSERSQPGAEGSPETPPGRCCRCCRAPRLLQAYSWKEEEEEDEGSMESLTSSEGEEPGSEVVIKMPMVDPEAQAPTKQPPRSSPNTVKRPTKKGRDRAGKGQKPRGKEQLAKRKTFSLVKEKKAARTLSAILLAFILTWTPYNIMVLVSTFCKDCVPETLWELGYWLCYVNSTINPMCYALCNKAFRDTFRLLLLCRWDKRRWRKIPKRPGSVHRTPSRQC
Experimental: as §1, §2, §3

[3] = target: T3, cloned human m4 muscarinic receptor (Homo sapiens, UniProt P08173); experiment: Muscarinic binding activity, 3H-QNB, m4
T3 sequence (P08173 1-479): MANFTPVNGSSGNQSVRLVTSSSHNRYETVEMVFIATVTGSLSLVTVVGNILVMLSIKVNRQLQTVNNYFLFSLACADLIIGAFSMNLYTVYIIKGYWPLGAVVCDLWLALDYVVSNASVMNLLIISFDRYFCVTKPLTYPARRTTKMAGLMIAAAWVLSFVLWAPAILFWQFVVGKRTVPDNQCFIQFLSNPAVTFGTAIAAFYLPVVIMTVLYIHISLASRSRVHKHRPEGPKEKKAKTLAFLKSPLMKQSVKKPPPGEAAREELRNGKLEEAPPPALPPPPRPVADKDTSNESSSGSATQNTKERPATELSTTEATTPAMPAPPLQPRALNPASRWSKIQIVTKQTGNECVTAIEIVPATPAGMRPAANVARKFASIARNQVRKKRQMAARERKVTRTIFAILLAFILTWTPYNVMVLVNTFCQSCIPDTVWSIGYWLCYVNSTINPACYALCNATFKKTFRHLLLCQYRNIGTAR
Experimental: as §1, §2

[4] = test system: ACh release from striatum; assay type: in vivo, rat; conditions: for Peak ACh release as % increase over Baseline: striatum of conscious rat
Experimental: Surgery: For these studies, male Sprague-Dawley Rats (250-350 g) were anesthetized with sodium pentobarbital (54 mg/kg, ip) and placed on a Kopf sterotaxic apparatus. The skull was exposed and drilled through to the dura at a point 0.2 mm anterior and 3.0 mm lateral to the bregma. At these coordinates, a guide cannula was positioned at the outer edge of the dura through the drilled opening, lowered perpendicularly to a depth of 2.5 mm, and permanently secured with dental cement to bone screws. Following the surgery, rats were given ampicillin (40 mg/kg, ip) and individually housed in modified cages. A recovery period of approximately 3 to 7 days was allowed before the microdialysis procedure was undertaken.
Microdialysis: All of the equipment and instrumentation used to conduct in vivo microdialysis was obtained from Bioanalytical Systems, Inc. (BAS). The microdialysis procedure involved the insertion through the guide cannula of a thin, needle-like perfusable probe (CMA/12,3 mm×0.5 mm) to a depth of 3 mm in striatum beyond the end of the guide. The probe was connected beforehand with tubing to a microinjection pump (CMA-/100). Rats were collared, tethered, and, following probe insertion, were placed in a large, clear, plexiglass bowl with litter material and access to food and water. The probe was perfused at 2 μl/min with Ringer's buffer (NaCl 147 mM; KCl 3.0 mM; CaCl2 1.2 mM; MgCl2 1.0 mM) containing 5.5 mM glucose, 0.2 mM L-ascorbate, and 1 μM neostigmine bromide at pH 7.4). To achieve stable baseline readings, microdialysis was allowed to proceed for 90 minutes prior to the collection of fractions. Fractions (20 μl) were obtained at 10 minute intervals over a 3 hour period using a refrigerated collector (CMA170 or 200). Four to five baseline fractions were collected, following which the drug or combination of drugs to be tested was administered to the animal. Upon completion of the collection, each rat was autopsied to determine accuracy of probe placement.
Acetylcholine (ACh) analysis: The concentration of ACh in collected samples of microdialysate was determined using HPLC/electrochemical detection. Samples were auto-injected (Waters 712 Refrigerated Sample Processor) onto a polymeric analytical HPLC column (BAS, MF-6150) and eluted with 50 mM Na2HPO4, pH 8.5. To prevent bacterial growth, Kathon CG reagent (0.005%) (BAS) was included in the mobile phase. Eluent from the analytical column, containing separated ACh and choline, was then immediately passed through an immobilized enzyme reactor cartridge (BAS, MF-6151) coupled to the column outlet. The reactor contained both acetylcholinesterase and choline oxidase covalently bound to a polymeric backbone. […] Data acquisition was carried out using an IBM Model 70 computer equipped with a microchannel IEEE board. Integration and quantification of peaks were accomplished using “Maxima” chromatography software (Waters Corporation). Total run time per sample was 11 minutes at a flow rate of 1 ml/min. Retention times for acetylcholine and choline were 6.5 and 7.8 minutes, respectively. To monitor and correct for possible changes in detector sensitivity during chromatography, ACh standards were included at the beginning, middle and end of each sample queue.
Increases in ACh levels are consistent with presynaptic m2 receptor antagonism.

ACh release from cortex = experiment: Microdialysis, ACh release from cortex of conscious rat; assay type: in vivo
[5] = range given for the named group of compounds, read-out: Ki, nM, m2
[6] = range given for the named group of compounds, read-out: Ki, nM, m1
[7] = range given for the named group of compounds, read-out: Ki, nM, m4

SMILES | melting point | Ki [1, 5] | Ki [2, 6] | Ki [3, 7] | other results
O=C(O)/C=C\C(=O)O.c1ccc(Oc2ccc(C3(N4CCN(C5CCCCC5)CC4)CCSCC3)cc2)cc1 | 137 to 139 °C | – | – | – | –
C=C(c1ccc(Sc2ccc(OC)cc2)cc1)C1CCN(C2CCCCC2)CC1 (as salt: hydrochloride) [Compound 302] | 227 to 230 °C | – | – | – | –
c1cnc(Oc2ccc(C(C3CCCCC3)N3CCN(C4CCCCC4)CC3)cc2)nc1 (single isomer, unassigned) [227(−)] | – | 0.05 to 16.6 nM | 2.1 to 224 nM | 0.33 to 36 nM | –
COc1ccc([S+]([O-])c2ccc(C(C#N)N3CCN(C4CCCCC4)CC3)cc2)cc1 (single isomer, unassigned) [Compound 169] | – | – | – | – | increase in ACh release ([4]; oral administration, brain region not stated): significant increase; Peak ACh release as % increase over Baseline ([4]; 0.1 mg/kg i.p. (FIG. 2)): 10%; Peak ACh release as % increase over Baseline ([4]; 1 mg/kg i.p. (FIG. 2)): 30%; Peak ACh release as % increase over Baseline ([4]; 3 mg/kg i.p. (FIG. 2)): 125%; Peak ACh release as % increase over Baseline ([4]; 10 mg/kg i.p. (FIG. 2)): 150%; Peak ACh release as % increase over Baseline ([4]; 30 mg/kg i.p. (FIG. 2)): 270%; Peak ACh release as % increase over Baseline ([4]; Compound 169 1 mg/kg i.p. (FIG. 4)): 40 (FIG. 4) %; Peak ACh release as % increase over Baseline (ACh release from cortex; 1 mg/kg i.p. (FIG. 1)): 75%; Peak ACh release as % increase over Baseline (ACh release from cortex; 10 mg/kg i.p. (FIG. 1)): 400%; Peak ACh release as % increase over Baseline (ACh release from cortex; 30 mg/kg i.p. (FIG. 1)): 1500%
C=C(c1ccc([S+]([O-])c2ccc(OC)cc2)cc1)C1CCN(C2CCCCC2)CC1 (single isomer, unassigned) [Compound 300] | – | 0.05 to 16.6 nM | 2.1 to 224 nM | 0.33 to 36 nM | –
C=C(c1ccc([S+]([O-])c2ccc(OC)cc2)cc1)C1CCN(C2CCCCC2)CC1 (single isomer, unassigned) [Compound 301] | 141 to 142 °C | – | – | – | –
COC(=O)C(c1ccc(S(=O)(=O)c2ccc(OC)cc2)cc1)N1CCN(C2CCCCC2)CC1 (centres unmarked) [Compound 214] | – | 0.05 to 16.6 nM | 2.1 to 224 nM | 0.33 to 36 nM | –
CC(C)C(c1ccc(Oc2ncccn2)cc1)N1CCN(C2CCCCC2)CC1 (centres unmarked) [Compound 232] | – | – | – | – | Ki [1]: 0.05 to 16.6 nM; Ki [2]: 2.1 to 224 nM; Ki [3]: 0.33 to 36 nM
CC1CN(C2CCCCC2)CCN1C(C)c1ccc(Oc2ncccn2)cc1 (centres unmarked) [Compound 269] | – | 0.05 to 16.6 nM | 2.1 to 224 nM | 0.33 to 36 nM | –
COc1ccc([S+]([O-])c2ccc(C(C)(C#N)N3CCN(C4CCCCC4)CC3)cc2)cc1 (centres unmarked) [Compound 289] | – | 0.05 to 16.6 nM | 2.1 to 224 nM | 0.33 to 36 nM | –
COC(=O)C(C)(c1ccc([S+]([O-])c2ccc(OC)cc2)cc1)N1CCN(C2CCCCC2)CC1 (centres unmarked) [Compound 296] | – | 0.05 to 16.6 nM | 2.1 to 224 nM | 0.33 to 36 nM | –
C=C(c1ccc(Sc2ccc(OC)cc2)cc1)C1CCN(C2CCCCC2)CC1 [Compound 302] | – | 0.05 to 16.6 nM | 2.1 to 224 nM | 0.33 to 36 nM | –
C=C(c1ccc([S+]([O-])c2ccc(OC)cc2)cc1)C1CCN(C2CCCCC2)CC1 (centres unmarked) [Compound 304] | – | 0.05 to 16.6 nM | 2.1 to 224 nM | 0.33 to 36 nM | –
COc1ccc([S+]([O-])c2ccc(C(=O)C3CCN(C4CCCCC4)CC3)cc2)cc1 (centres unmarked) [Compound 305] | 125 °C | 0.05 to 16.6 nM | 2.1 to 224 nM | 0.33 to 36 nM | –
COc1ccc(S(=O)(=O)c2ccc([C@H](C)N3CCN(C4CCCCC4)C[C@H]3C)cc2)cc1 [Compound 656] | 227 to 230 °C | 0.03 to 0.48 nM | – | – | –
COc1ccc(S(=O)(=O)c2ccc([C@@H](C)N3CCN(C4CCCCC4)C[C@H]3C)cc2)cc1 [Compound 667] | 241 to 242 °C | 0.03 to 0.48 nM | – | – | –
C=C(c1ccc(S(=O)(=O)c2ccc(OC)cc2)cc1)C1CCN(C2CCN(C(=O)OCC)CC2)CC1 [Compound 760] | – | 0.03 to 0.48 nM | – | – | –
Nc1c2c(nc3ccccc13)CCCC2 [Tacrine, reference compound] | – | – | – | – | Peak ACh release as % increase over Baseline ([4]; Tacrine 3 mg/kg i.p. (FIG. 3)): 30 (FIG. 3) %

Source: US6498168B2, “Muscarinic antagonists” (Schering Corporation, priority 1995, dated 2002)
